Key:
[1] = target: T1, human GHSR (Homo sapiens, UniProt Q92847); assay: Agonistic activity on human GHSR in human GHSR/CHO cells (FLIPR calcium); assay type: cell-based; settings: human GHSR/CHO stable transformant cells, Fluo-4 FLIPR
T1 construct: expressed in transfected cells
Protocol: This method is used for determining the agonistic activity effect of the compound in the present invention on human GHSR protein expressed in human GHSR/CHO stable transformant cells.
Preparation of buffer solution: HBSS (1X): HEPES (1M)=49:1, 0.5% BSA added.
Human GHSR/CHO containing stable transformant cells were inoculated in a 384-well plate, a cell plate was taken out after overnight, the culture medium was removed, and 20 μL of buffer solution was slowly added in each well, then 20 μL of 2X Fluo-4 Direct™ No-wash Loading Buffer was added in each well. The cell plate was incubated in an incubator containing 5% of CO2 at 37° C. for 50 min, and the cell plate was taken out and placed at room temperature for 10 min. 30 μL of buffer solution was added to each well in the compound plate; an additional buffer solution plate was prepared, and 30 μL of buffer solution was added to each well. […] 10 μL of buffer solution was transferred to the cell plate, the fluorescence signal values were read. 10 μL of compound was transferred to the cell plate, the fluorescence signal values were read. The maximum-minimum values from the 91st signal point to the 230th signal point were calculated through the FLIPR program. The EC50 value of the compound could be calculated by the software using the fluorescence value corresponding to the different concentrations.

[2] = in vitro; settings: human, Caco-2, pH 7.4
Protocol: A transport buffer solution in the study was HBSS containing 10.0 mM of HEPSS, and had pH of 7.40±0.05. The compound to be tested was subjected to bidirectional test at 2.00 μM, and the final concentration of DMSO was required to be less than 1%. In a CO2 incubator at 37±1° C., the cell plate was stood and incubated for 2 h under CO2 at 5% […] and saturated humidity. After mixing all samples with acetonitrile containing internal standard, the mixture was centrifuged at 3200×g for 10 min. The compound was tested, 100 μL of supernatant was diluted with 100 μL of ultrapure water for LC-MS/MS analysis. The concentration of the test compound and a control compound (Digoxin as a model verification compound and ibutamoren as a positive control) in a donor solution and a receiver solution was quantified by an LC-MS/MS method using the peak area ratio of the analyte/internal standard. After transport determination, a lucifer yellow exclusion determination was carried out to determine the integrity of the Caco-2 cell monolayer.

T1 sequence (Q92847 whole entry): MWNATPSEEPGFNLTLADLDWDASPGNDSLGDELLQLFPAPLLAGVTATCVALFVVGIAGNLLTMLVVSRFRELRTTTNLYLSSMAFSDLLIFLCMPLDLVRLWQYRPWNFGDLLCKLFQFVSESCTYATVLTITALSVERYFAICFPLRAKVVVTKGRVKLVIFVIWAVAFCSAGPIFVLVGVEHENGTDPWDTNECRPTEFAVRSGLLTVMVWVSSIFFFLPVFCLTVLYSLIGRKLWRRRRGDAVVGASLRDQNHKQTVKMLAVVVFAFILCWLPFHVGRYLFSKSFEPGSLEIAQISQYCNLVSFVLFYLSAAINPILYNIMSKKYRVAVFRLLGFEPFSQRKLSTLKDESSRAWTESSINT

EC50 [1]: 14.6 nM
Papp A→B at 2 h, 2 μM [2]: 0.0518 ×10⁻⁶ cm/s
Papp B→A at 2 h, 2 μM [2]: 8.8 ×10⁻⁶ cm/s
efflux ratio at 2 h, 2 μM [2]: 170
SMILES: CC(OC(=O)NC(C)(C)C(=O)N[C@H](COCc1ccccc1)C(=O)N1CCC2(CC1)CN(S(C)(=O)=O)c1ccccc12)OC(=O)C(C)C (stereo partly drawn) [Compound 1e, (4R)-7,7-dimethyl-4-(1-(methylsulfonyl)spiro[indoline-3,4′-piperidine]-1′-carbonyl)-6,9-dioxo-1-phenyl-2,10-dioxa-5,8-diazadodecane-11-ylisobutyrate]

Source: patent publication US20260226054A1, “CRYSTAL FORM AND AMORPHOUS SUBSTANCE OF INDOLINE SPIRO COMPOUND, AND PREPARATION METHOD THEREFOR AND USE THEREOF” (CHANGCHUN GENESCIENCE PHARMACEUTICAL CO., LTD., priority 2022, published 2026)
